Data from patent US20040191842A1, “Chemopreventive and therapeutic aspects of polyphenolic compositions and assays” (Medical College of Georgia Research Institute, Inc., priority 2002, published 2004).
Several values for one entry are separate records, joined by “and”; a condition that tells them apart may be missing. Identical values can stand only once.

Experiments:
OSC2 cells = assay: BrdU incorporation assay, OSC2 (OSC-2) cells; format: cell-based, human
Procedure: DNA synthesis analysis using BrdU incorporation method. The BrdU cell proliferation kit was purchased from Oncogene Research Products, Boston, Mass. Cells were culture in 96 well plates with 10^4 cells/well. After EGCG and GTPPs treatments, cells were labeled by BrdU, reacted with BrdU antibody and the color reaction was carried out according to the protocol provided by the manufacturer. The coloration was measure by a Thermo MAX microplate reader using wavelengths 450 nm-562 nm.
(§1) DNA synthesis assay. DNA synthesis was analyzed by a BrdU Cell Proliferation Assay Kit (Oncogene Research Products, Boston, Mass.). […] After the treatment, cells were labeled with BrdU for 2 hours at 37° C. and reacted with anti-BrdU antibody. Unbound antibody in each well was removed by rinsing, and horseradish peroxidase-conjugated goat anti-mouse antibody was added to each well. The color reaction was visualized according to the protocol provided by the manufacturer.
as §1, with “cell proliferation assay kit” for “Cell Proliferation Assay Kit”, “anti-mouse IgG” for “anti-mouse”, “reaction to visualize the secondary antibody” for “reaction”, “carried out” for “visualized”

[1] = cited from earlier work
Apaf-1 = assay: Western blot of Apaf-1 in mammary epithelial cells; format: cell-based, human; conditions: 15 μM EGCG, 24 h
Procedure: Western blot analysis. The keratinocytes and the mammary epithelial cells were placed in KGM-2 and MEGM, respectively, overnight prior to treatment. Cells were lysed, after 24-hour treatment, in RIPA buffer (1% NP-40, 1% sodium deoxycholate, 0.1% SDS, 0.15 M NaCl, 0.01 M sodium phosphate, pH 7.2, and 1% Trasylol) containing proteinase inhibitors (1 mM PMSF, 1 μg/ml each of aprotinin, leupeptin, and pepstatin). The concentration of protein in each sample was determined using the BioRad DC Protein Assay and spectrophotometry. 50 μg of protein from each sample and a BioRad molecular weight standard marker were run on a 10% SDS-PAGE, followed by transfer to nitrocellulose membranes. Nonspecific binding to the membranes was blocked with 10% nonfat milk. Primary polyclonal (rabbit) antibodies and a horseradish peroxidase-conjugated goat anti-rabbit secondary antibody were used in conjunction with the ECL Chemiluminescence Kit (Amersham Pharmacia Biotech, New Jersey) and membranes were exposed to radiographic films for detection. Western blots were digitized for comparison of the intensity for each band using the ImageTool image analysis software program (University of Texas Health Science Center, San Antonio, Tex.). The integrated density of each band was measured using identical 1480 pixel areas of each Apfa-1 or Actin band at a scale of densities from 0 to 255. […]

p57 (KIP2) = format: cell-based, human
Procedure: Cell treatments. For 24 hours treatments, exponentially growing cells with 40% confluency (to minimize differentiation and spontaneous apoptosis) were either maintained in 50 μM EGCG (2.29 mg/100 ml) or 0.2 mg/ml of GTPPs in tissue culture flasks (25 cm^2). Control flasks contained cells without any treatment. To test whether BaP or NNK interfere with the induction of p57, the human keratinocytes were treated with 0.12 μM BaP, or 10 μM NNK, either alone or in combination with 50 μM EGCG. To examine the time course of p57 induction, cells were treated with 50 μM EGCG and harvested for Western analysis at 30 minutes, 2 hours, 6 hours, and 24 hours. The human keratinocytes were treated when the cell density reached 85-90% confluency (to mimic the epithelium).
In a parallel series of experiments, treatment with EGCG was performed with 30 micrograms per milliliter (μg/ml) cycloheximide added to the keratinocyte media 30 minutes prior to the addition of EGCG. The dose-response experiments were performed using EGCG concentrations at 30, 50 100, and 200 μM in the culture media for 24 hours.
Western blot analysis. Cells from different treatment groups were lysed in RIPA buffer (1% NP-40, 1% sodium deoxycholate, 0.1% SDS, 0.15 M NaCl, 0.01 M sodium phosphate, pH 7.2, and 1% Trasylol) containing proteinase inhibitors (1 mM PMSF, 1 μg/ml each of aprotinin, leupeptin, and pepstatin). The concentration of protein in each sample was determined using the BioRad DC Protein Assay and spectrophotometry. Fifty micrograms (μg) of protein from each sample and a BioRad molecular weight standard marker were run on a 10% SDS-PAGE, followed by transfer to nitrocellulose membranes. Nonspecific binding to membranes was blocked with 10% nonfat milk. Specific primary polyclonal (rabbit) antibody against p57 and a horse radish peroxidase-conjugated goat anti-rabbit secondary antibody were used in conjunction with the ECL Chemiluminescence Kit and membranes were exposed to radiographic films for detection.

O=C(O[C@@H]1Cc2c(O)cc(O)cc2O[C@@H]1c1cc(O)c(O)c(O)c1)c1cc(O)c(O)c(O)c1 [EGCG, (−)-epigallocatechin-3-gallate]
BrdU incorporation, of control levels (OSC2 cells; 200 μM EGCG): approximately 75%
reduction of BrdU incorporation (OSC2 cells; 200 μM EGCG, 24-hour period): approximately 25%
BrdU incorporation (OSC2 cells; EGCG concentrations reached 50 μM, or GTPPs): ceased BrdU incorporation
EGCG secreted from human saliva ([1]; after two to three cups of green tea): ≤ 50 μM and ≤ 22.9 μg/ml
absorption through the oral mucosa ([1]; humans): rapidly absorbed through the oral mucosa
Apaf-1 protein level increase above control (densitometry) (Apaf-1): 47%
p57 protein accumulation (p57 (KIP2); 50 μM EGCG or 0.2 mg/ml GTPPs, 24 h, 40% confluency): accumulated in normal human epithelial cells
EGCG-stimulated p57 protein accumulation when BaP and NNK were present (p57 (KIP2); 50 μM EGCG with 0.12 μM BaP or 10 μM NNK): still occurred
time of peak p57 expression (p57 (KIP2); 50 μM EGCG, cell density 90%): 6 h
p57 levels over 24 hours (p57 (KIP2); 100 μM or 200 μM EGCG, 90% confluency): remained high throughout the 24 hours period
